Experimental data reported in PubChem BioAssay (NCI).
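The compound was tested at five concentrations on cells cultured in 96-well plates, with a 48-hour exposure period. GI50 is the concentration that inhibits growth by half. Definition used: TGI = concentration required for complete inhibition of growth.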

How the values were obtained:
Assay in all cases: DTP human tumour cell line panel, 48 h
[1] = system: SR leukemia
[2] = system: DU-145 prostate
[3] = system: COLO 205 colon
[4] = system: MOLT-4 leukemia
[5] = system: UO-31 renal
[6] = system: MALME-3M melanoma
[7] = system: SF-268 CNS
[8] = system: MDA-MB-435
[9] = system: NCI-H226 lung
[10] = system: UACC-62 melanoma
[11] = system: OVCAR-4 ovarian
[12] = system: HOP-92 NSCLC
[13] = system: SNB-19 CNS
[14] = system: SK-MEL-5 melanoma
[15] = system: RPMI-8226 leukemia
[16] = system: U251 CNS
[17] = system: EKVX NSCLC
[18] = system: M14 melanoma
[19] = system: HL-60(TB) leukemia
[20] = system: MDA-MB-231 breast
[21] = system: NCI-H460 lung
[22] = system: PC-3 prostate
[23] = system: SNB-75 CNS
[24] = system: SF-295 CNS
[25] = system: A549 NSCLC
[26] = system: IGROV1 ovarian
[27] = system: HS 578T breast
[28] = system: CAKI-1 renal
[29] = system: 786-0 renal
[30] = system: SK-OV-3 ovarian
[31] = system: HCT-15 colon
[32] = system: UACC-257 melanoma
[33] = system: MCF7 breast
[34] = system: ACHN renal
[35] = system: RXF 393 renal
[36] = system: OVCAR-3 ovarian
[37] = system: NCI/ADR-RES ovarian
[38] = system: SK-MEL-28 melanoma
[39] = system: NCI-H23 lung
[40] = system: LOX IMVI melanoma
[41] = system: HCT-116 colon
[42] = system: SF-539 CNS
[43] = system: OVCAR-8 ovarian
[44] = system: HCC-2998 colon
[45] = system: KM12 colon
[46] = system: K-562 leukemia
[47] = system: OVCAR-5 ovarian
[48] = system: CCRF-CEM leukemia
[49] = system: HOP-62 NSCLC
[50] = system: A498 renal
[51] = system: SW-620 colon
[52] = system: BT-549 breast
[53] = system: TK-10 renal
[54] = system: HT29 colon
[55] = system: SK-MEL-2 melanoma
[56] = system: NCI-H522 lung
[57] = system: T-47D breast
[58] = system: SN12C renal

## COc1cc(/C=C/[N+](=O)[O-])c([N+](=O)[O-])cc1OC
[1]
  GI50: 1.6 µM
  TGI: 8.24 µM
[2]
  GI50: 1.58 µM
  TGI: 2.93 µM
[3]
  GI50: 1.16 µM
  TGI: 2.43 µM
[4]
  GI50: 2.21 µM
  TGI: 9.11 µM
[5]
  GI50: 1.36 µM
  TGI: 2.81 µM
[6]
  GI50: 1.71 µM
  TGI: 3.38 µM
[7]
  GI50: 2.71 µM
  TGI: 11.3 µM
[8]
  GI50: 2.17 µM
  TGI: 7.51 µM
[9]
  GI50: 2.63 µM
  TGI: 7.68 µM
[10]
  GI50: 2.34 µM
  TGI: 7.14 µM
[11]
  GI50: 1.57 µM
  TGI: 2.93 µM
[12]
  GI50: 2.05 µM
  TGI: 4.27 µM
[13]
  GI50: 6 µM
  TGI: 19.8 µM
[14]
  GI50: 3.39 µM
  TGI: 12.3 µM
[15]
  GI50: 2.53 µM
  TGI: 5.74 µM
[16]
  GI50: 1.92 µM
  TGI: 5.35 µM
[17]
  GI50: 8.98 µM
  TGI: 22.6 µM
[18]
  GI50: 1.6 µM
  TGI: 2.98 µM
[19]
  GI50: 1.32 µM
  TGI: 5.71 µM
[20]
  GI50: 1.7 µM
  TGI: 3.46 µM
[21]
  GI50: 2.33 µM
  TGI: 5.67 µM
[22]
  GI50: 2.3 µM
  TGI: 5.7 µM
[23]
  GI50: 2.25 µM
  TGI: 7.56 µM
[24]
  GI50: 6.72 µM
  TGI: 22.1 µM
[25]
  GI50: 3.38 µM
  TGI: 10.3 µM
[26]
  GI50: 2.55 µM
  TGI: 11.9 µM
[27]
  GI50: 1.88 µM
  TGI: 7.45 µM
[28]
  GI50: 1.7 µM
  TGI: 7.17 µM
[29]
  GI50: 1.61 µM
  TGI: 2.95 µM
[30]
  GI50: 12.8 µM
  TGI: 25.4 µM
[31]
  GI50: 1.33 µM
  TGI: 4.49 µM
[32]
  GI50: 2.91 µM
  TGI: 11.9 µM
[33]
  GI50: 1.12 µM
  TGI: 2.73 µM
[34]
  GI50: 1.56 µM
  TGI: 2.9 µM
[35]
  GI50: 1.38 µM
  TGI: 2.67 µM
[36]
  GI50: 1.3 µM
  TGI: 2.57 µM
[37]
  GI50: 2.85 µM
  TGI: 10.1 µM
[38]
  GI50: 2.06 µM
  TGI: 4.72 µM
[39]
  GI50: 2.12 µM
  TGI: 4.94 µM
[40]
  GI50: 1.68 µM
  TGI: 3.05 µM
[41]
  GI50: 0.977 µM
  TGI: 2.14 µM
[42]
  GI50: 3.27 µM
  TGI: 84.7 µM
[43]
  GI50: 2.5 µM
  TGI: 9.46 µM
[44]
  GI50: 1.73 µM
  TGI: 3.22 µM
[45]
  GI50: 1.93 µM
  TGI: 3.92 µM
[46]
  GI50: 1.64 µM
  TGI: > 100 µM
[47]
  GI50: 1.98 µM
  TGI: 3.98 µM
[48]
  GI50: 2.13 µM
  TGI: 6.07 µM
[49]
  GI50: 2.91 µM
  TGI: 8.74 µM
[50]
  GI50: 3.03 µM
  TGI: 11.9 µM
[51]
  GI50: 0.785 µM
  TGI: 2.26 µM

## O=C(CCCBr)Nc1ccccc1C#C/C=C\C#Cc1ccccc1C(F)(F)F
[52]
  GI50: 19.8 µM
  TGI: > 50 µM
[2]
  GI50: > 50 µM
  TGI: > 50 µM
[3]
  GI50: > 50 µM
  TGI: > 50 µM
[4]
  GI50: 16.3 µM
  TGI: > 50 µM
[5]
  GI50: 20.2 µM
  TGI: > 50 µM
[6]
  GI50: 18.7 µM
  TGI: > 50 µM
[7]
  GI50: 35.3 µM
  TGI: > 50 µM
[8]
  GI50: 13.5 µM
  TGI: 32.6 µM
[9]
  GI50: 13.9 µM
  TGI: 44.8 µM
[10]
  GI50: 14.1 µM
  TGI: > 50 µM
[11]
  GI50: 10.1 µM
  TGI: 31.9 µM
[53]
  GI50: 38.8 µM
  TGI: > 50 µM
[54]
  GI50: 8.56 µM
  TGI: 20.8 µM
[55]
  GI50: 27.8 µM
  TGI: > 50 µM
[12]
  GI50: 19.7 µM
  TGI: > 50 µM
[13]
  GI50: > 50 µM
  TGI: > 50 µM
[14]
  GI50: 38.3 µM
  TGI: > 50 µM
[15]
  GI50: 14.2 µM
  TGI: > 50 µM
[56]
  GI50: 15.5 µM
  TGI: > 50 µM
[16]
  GI50: 11.3 µM
  TGI: 31.1 µM
[17]
  GI50: 39.1 µM
  TGI: > 50 µM
[18]
  GI50: 12.1 µM
  TGI: 29.5 µM
[19]
  GI50: 16.1 µM
  TGI: 45 µM
[20]
  GI50: 12.8 µM
  TGI: 33.4 µM
[21]
  GI50: 19.2 µM
  TGI: > 50 µM
[22]
  GI50: 23.1 µM
  TGI: > 50 µM
[23]
  GI50: 9.07 µM
  TGI: 40.6 µM
[24]
  GI50: 27.6 µM
  TGI: > 50 µM
[25]
  GI50: 19.3 µM
  TGI: > 50 µM
[26]
  GI50: 6.75 µM
  TGI: 26.9 µM
[27]
  GI50: 36.5 µM
  TGI: > 50 µM
[28]
  GI50: 15.3 µM
  TGI: > 50 µM
[29]
  GI50: 13.5 µM
  TGI: > 50 µM
[30]
  GI50: > 50 µM
  TGI: > 50 µM
[57]
  GI50: > 50 µM
  TGI: > 50 µM
[31]
  GI50: 20.6 µM
  TGI: > 50 µM
[32]
  GI50: 19.1 µM
  TGI: > 50 µM
[33]
  GI50: 26.6 µM
  TGI: > 50 µM
[34]
  GI50: 26.8 µM
  TGI: > 50 µM
[35]
  GI50: 8.35 µM
  TGI: 28.4 µM
[36]
  GI50: 13.3 µM
  TGI: 48.9 µM
[37]
  GI50: 11.9 µM
  TGI: 29.2 µM
[38]
  GI50: 10.3 µM
  TGI: 25.7 µM
[39]
  GI50: 16.2 µM
  TGI: > 50 µM
[40]
  GI50: 22.6 µM
  TGI: > 50 µM
[58]
  GI50: 10.6 µM
  TGI: 29.9 µM
[41]
  GI50: 10.9 µM
  TGI: 43.7 µM
[42]
  GI50: 21.2 µM
  TGI: > 50 µM
[43]
  GI50: 24.2 µM
  TGI: > 50 µM
[44]
  GI50: 7.25 µM
  TGI: 20.3 µM
[45]
  GI50: 17.4 µM
  TGI: > 50 µM
[46]
  GI50: 21.6 µM
  TGI: > 50 µM
[47]
  GI50: > 50 µM
  TGI: > 50 µM
[48]
  GI50: 15 µM
  TGI: 35.7 µM
[49]
  GI50: 4.76 µM
  TGI: 20.6 µM
[50]
  GI50: 15.8 µM
  TGI: 47.3 µM
[51]
  GI50: 22.5 µM
  TGI: > 50 µM
